Test results taken from patent US9266871B2, “Trifluoromethyl-substituted fused pyrimidines and their use” (BAYER PHARMA AKTIENGESELLSCHAFT, priority 2013, dated 2016).

Molecular target: T1, bovine PDE 6 (Bos taurus, UniProt P11541+P23439)
T1 construct: from tissue; host or cells: bovine retina, photoreceptor outer segments (ROS)
T1 sequence (P11541 2-856 limits assumed): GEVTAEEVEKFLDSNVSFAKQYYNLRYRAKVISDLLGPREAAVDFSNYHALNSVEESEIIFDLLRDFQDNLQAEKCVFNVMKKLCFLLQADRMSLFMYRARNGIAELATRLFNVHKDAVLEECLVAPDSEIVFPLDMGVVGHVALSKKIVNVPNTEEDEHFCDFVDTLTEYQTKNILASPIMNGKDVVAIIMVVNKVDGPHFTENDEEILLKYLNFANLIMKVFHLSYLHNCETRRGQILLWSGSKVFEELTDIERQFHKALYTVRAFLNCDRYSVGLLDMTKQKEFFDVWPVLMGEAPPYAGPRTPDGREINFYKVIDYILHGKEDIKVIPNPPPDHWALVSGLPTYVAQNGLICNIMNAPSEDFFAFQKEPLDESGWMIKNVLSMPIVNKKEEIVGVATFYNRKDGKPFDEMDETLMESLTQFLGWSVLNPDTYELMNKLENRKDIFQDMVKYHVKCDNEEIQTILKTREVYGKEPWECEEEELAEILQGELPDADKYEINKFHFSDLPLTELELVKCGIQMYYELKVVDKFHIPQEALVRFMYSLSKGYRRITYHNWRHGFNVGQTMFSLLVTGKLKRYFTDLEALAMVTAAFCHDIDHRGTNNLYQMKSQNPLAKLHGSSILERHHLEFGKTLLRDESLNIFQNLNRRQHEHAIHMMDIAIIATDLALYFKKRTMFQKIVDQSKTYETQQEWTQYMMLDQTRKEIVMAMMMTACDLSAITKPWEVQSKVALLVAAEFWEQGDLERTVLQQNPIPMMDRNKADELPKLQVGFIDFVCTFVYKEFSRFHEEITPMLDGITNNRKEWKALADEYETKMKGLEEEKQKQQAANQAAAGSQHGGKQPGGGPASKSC
T1 sequence (P23439 2-850 limits assumed): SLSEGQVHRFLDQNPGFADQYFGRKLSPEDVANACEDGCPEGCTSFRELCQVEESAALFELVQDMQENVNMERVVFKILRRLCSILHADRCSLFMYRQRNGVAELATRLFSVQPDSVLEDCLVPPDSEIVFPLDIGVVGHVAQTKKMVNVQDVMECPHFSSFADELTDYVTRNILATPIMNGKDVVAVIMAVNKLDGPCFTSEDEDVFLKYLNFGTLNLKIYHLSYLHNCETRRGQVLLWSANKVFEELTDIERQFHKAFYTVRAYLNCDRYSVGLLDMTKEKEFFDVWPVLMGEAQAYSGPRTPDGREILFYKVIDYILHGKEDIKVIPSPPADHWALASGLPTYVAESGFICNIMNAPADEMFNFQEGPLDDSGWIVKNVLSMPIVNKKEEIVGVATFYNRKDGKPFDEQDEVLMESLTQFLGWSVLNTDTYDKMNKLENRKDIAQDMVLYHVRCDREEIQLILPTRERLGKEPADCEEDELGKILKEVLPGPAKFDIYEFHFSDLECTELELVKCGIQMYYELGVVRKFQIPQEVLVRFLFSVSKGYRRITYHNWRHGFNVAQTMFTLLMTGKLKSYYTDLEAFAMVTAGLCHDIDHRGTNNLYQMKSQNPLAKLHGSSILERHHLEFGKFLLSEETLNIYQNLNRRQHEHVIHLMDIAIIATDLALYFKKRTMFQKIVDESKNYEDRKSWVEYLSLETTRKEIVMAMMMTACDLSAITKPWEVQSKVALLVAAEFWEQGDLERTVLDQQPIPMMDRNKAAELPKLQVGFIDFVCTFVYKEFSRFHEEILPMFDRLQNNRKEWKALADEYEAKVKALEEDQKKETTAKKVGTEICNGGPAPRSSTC
Assay: Inhibition of bovine phosphodiesterase 6 (PDE 6), 3H-cGMP SPA
Format: biochemical
Conditions: bovine PDE 6 inhibition
Procedure: B-6. Inhibition of Bovine Phosphodiesterase 6 (PDE 6)
PDE 6 is purified from external photoreceptor segments of bovine retina (ROS), activated by mild trypsination and purified further by ion exchange chromatography using a Mono Q column. Fractions having PDE 6 activity are combined (PDE 6 preparation) and stored at −80° (I. Saenz de Tejada et al., International Journal of Impotence Research 2001, 13, 282-290). The in vitro effect of test substances on bovine PDE 6 is determined using the commercially available 3H-cGMP Scintillation Proximity Assay (SPA) from Perkin Elmer. The reaction ([…], 37° C.) comprises serial dilution series of the test substances in DMSO and PDE 6 preparation (typical dilution 1:100,000), [8^−3H]guanosine 3′,5′-cyclic phosphate (0.25 μCi/mL; Perkin Elmer) and unlabelled cGMP (10 μM) in assay buffer (50 mM Tris/HCl pH 7.5; 140 mM NaCl; 8.3 mM MgCl2; 1.7 mM EDTA; 0.02% BSA). IC50 values are determined by plotting the substance concentration against the percent PDE 6 inhibition determined (Wunder et al. Molecular Pharmacology 2005, 68, 1775-1781).

Molecule `C[C@@]1(C(F)(F)F)C(=O)Nc2nc(-c3nn(Cc4ncccc4F)c4ncc(F)cc34)nc(NCCC(F)(F)F)c21` (single isomer, unassigned) [Example 1-1] has an IC50 of 220 nM.

Molecule `C[C@]1(C(F)(F)F)C(=O)Nc2nc(-c3nn(Cc4ncccc4F)c4ncc(F)cc34)nc(NCCC(F)(F)F)c21` (single isomer, unassigned) [Example 1-2] has an IC50 of 1400 nM.
